Experimental data reported in ChEMBL document CHEMBL1149139, “Azasugar-based MMP/ADAM inhibitors as antipsoriatic agents” (J Med Chem, 2004).

Experiments:
[1] = biological target: T1, Disintegrin and metalloproteinase domain-containing protein 17 (Homo sapiens, UniProt P78536); assay: Inhibition of human tumor necrosis factor alpha converting enzyme
[2] = biological target: Stromelysin-1 (Homo sapiens, UniProt P08254); assay: Inhibition of human recombinant matrix metalloprotease 3
[3] = biological target: T2, Interstitial collagenase (Homo sapiens, UniProt P03956); assay: Inhibition of human recombinant matrix metalloprotease 1
T2 sequence (P03956 whole entry): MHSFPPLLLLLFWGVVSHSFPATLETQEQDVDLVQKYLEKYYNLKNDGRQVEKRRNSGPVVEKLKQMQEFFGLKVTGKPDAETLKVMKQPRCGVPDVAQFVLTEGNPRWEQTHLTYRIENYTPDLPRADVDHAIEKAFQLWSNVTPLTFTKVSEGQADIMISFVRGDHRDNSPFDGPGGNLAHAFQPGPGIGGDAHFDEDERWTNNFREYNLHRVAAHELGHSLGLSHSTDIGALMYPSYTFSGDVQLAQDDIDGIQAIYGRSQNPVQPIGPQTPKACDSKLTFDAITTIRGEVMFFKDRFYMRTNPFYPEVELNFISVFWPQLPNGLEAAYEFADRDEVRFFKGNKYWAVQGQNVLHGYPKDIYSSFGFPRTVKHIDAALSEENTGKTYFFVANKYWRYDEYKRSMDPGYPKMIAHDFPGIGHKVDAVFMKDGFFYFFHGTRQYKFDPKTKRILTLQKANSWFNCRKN

[4] = biological target: T1, Disintegrin and metalloproteinase domain-containing protein 17; assay: Inhibition of heparin-binding HB-EGF shedding
[5] = biological target: Matrix metalloproteinase-9 (Homo sapiens, UniProt P14780); assay: Inhibition of human recombinant matrix metalloprotease 9
Chain of Matrix metalloproteinase-9 (P14780 whole entry): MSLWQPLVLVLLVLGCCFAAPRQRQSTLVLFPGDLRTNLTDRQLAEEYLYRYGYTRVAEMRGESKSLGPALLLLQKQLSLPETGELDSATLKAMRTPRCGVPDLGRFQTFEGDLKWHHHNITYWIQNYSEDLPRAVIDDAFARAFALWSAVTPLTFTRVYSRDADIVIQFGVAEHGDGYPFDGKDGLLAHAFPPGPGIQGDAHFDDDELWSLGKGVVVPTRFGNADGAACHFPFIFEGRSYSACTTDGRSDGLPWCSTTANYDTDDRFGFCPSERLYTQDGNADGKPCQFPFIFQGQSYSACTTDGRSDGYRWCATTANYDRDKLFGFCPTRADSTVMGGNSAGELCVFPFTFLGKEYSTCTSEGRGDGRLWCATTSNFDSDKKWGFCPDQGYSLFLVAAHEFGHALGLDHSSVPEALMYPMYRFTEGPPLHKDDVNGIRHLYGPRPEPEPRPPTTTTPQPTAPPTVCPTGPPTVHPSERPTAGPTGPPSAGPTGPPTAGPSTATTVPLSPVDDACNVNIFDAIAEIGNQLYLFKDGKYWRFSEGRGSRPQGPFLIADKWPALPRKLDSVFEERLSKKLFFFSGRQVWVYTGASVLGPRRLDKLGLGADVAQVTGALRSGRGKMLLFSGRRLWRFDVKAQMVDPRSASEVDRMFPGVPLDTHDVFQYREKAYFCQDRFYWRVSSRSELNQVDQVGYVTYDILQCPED

Chain of Stromelysin-1 (P08254 whole entry): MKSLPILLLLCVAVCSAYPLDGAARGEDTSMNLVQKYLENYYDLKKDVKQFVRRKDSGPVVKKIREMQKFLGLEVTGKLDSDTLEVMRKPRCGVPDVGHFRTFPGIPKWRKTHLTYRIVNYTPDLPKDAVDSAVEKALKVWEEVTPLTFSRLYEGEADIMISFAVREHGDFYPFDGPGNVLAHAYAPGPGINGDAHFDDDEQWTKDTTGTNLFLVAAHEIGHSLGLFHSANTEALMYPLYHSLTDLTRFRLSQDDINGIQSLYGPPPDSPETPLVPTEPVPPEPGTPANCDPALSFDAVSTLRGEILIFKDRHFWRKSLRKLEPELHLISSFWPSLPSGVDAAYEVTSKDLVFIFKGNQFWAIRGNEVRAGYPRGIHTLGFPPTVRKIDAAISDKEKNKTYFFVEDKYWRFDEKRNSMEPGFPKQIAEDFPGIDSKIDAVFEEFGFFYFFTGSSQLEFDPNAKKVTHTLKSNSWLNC
T1 sequence (P78536 whole entry, the tested form may be a part): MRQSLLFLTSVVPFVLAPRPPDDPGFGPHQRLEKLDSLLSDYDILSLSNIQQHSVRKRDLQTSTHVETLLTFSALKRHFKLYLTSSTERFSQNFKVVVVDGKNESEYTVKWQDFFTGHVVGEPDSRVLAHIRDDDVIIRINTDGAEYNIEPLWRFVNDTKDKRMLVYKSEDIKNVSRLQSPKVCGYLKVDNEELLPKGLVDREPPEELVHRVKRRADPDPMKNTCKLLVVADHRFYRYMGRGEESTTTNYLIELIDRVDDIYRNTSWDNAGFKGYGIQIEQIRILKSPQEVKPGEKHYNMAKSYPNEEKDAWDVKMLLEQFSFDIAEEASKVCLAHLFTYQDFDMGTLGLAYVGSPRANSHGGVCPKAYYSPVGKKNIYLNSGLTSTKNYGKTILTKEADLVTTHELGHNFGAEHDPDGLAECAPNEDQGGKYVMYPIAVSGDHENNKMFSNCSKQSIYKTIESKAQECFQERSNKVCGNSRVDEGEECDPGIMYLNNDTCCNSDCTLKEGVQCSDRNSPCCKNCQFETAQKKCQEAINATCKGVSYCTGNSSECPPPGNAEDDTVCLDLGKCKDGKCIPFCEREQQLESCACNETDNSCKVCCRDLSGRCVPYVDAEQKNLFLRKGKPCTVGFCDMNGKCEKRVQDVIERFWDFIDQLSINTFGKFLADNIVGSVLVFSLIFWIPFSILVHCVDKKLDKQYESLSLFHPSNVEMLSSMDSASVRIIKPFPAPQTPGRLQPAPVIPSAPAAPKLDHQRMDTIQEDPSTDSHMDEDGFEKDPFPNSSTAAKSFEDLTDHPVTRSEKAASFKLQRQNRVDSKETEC

SMILES | IC50 [4] [nM] | Ki [1] [nM] | Ki [2] [nM] | Ki [3] [nM] | Ki [5] [nM]
O=C(NO)[C@H]1[C@@H](O)[C@H](O)[C@H](O)CN1S(=O)(=O)c1ccc(OCc2ccccc2)cc1 | 84 | 1.7 | 2.1 | > 850 | 7.4
O=C(NO)[C@H]1[C@@H](O)[C@H](O)[C@H](O)CN1S(=O)(=O)c1ccc(-c2ccccc2)cc1 | 21000 | 21 | 50 | 162 | 47
O=C(NO)[C@H]1[C@@H](O)[C@H](O)[C@@H](O)CN1S(=O)(=O)c1ccc(Oc2ccccc2)cc1 | 350 |  |  |  | 

Further lines, with some results ahead:

IC50 [4] [nM] | SMILES | Ki [1] [nM] | Ki [2] [nM] | Ki [3] [nM] | Ki [5] [nM]
340 | O=C(NO)[C@H]1[C@@H](O)[C@H](O)[C@H](O)CN1S(=O)(=O)c1ccc(Oc2ccccc2)cc1 | 6.2 | 0.35 | 5.3 | 
450 | COc1ccc(S(=O)(=O)N2C[C@@H](O)[C@@H](O)[C@H](O)[C@@H]2C(=O)NO)cc1 | 15 |  | 26 | 
